The source of these data is patent US9006150B2, “Structural nucleic acid guided chemical synthesis” (Vipergen ApS, priority 2004, dated 2015).

Entries after “also recorded” stand apart in the source; their conditions may differ.

For assay [1], the system named is 3E7 anti Leu-enkephalin monoclonal antibody. It counts as binding.
Assay [2] relates to W6/32 monoclonal antibody.

With “Gly-Leu-Phe-Tyr-Gly-DNA (GLFYG; DNA conjugate; printed: Gly-Leu-Phe-Tyr-Gly-) [R2 product, Structural DNA display product with scrambled Leu-enkephalin, negative control for the partitioning assay]”, the “binding to 3E7 antibody (gel-shifted band)” value in assay [1] is reported as “does not bind to 3E7”.

Tyr-Gly-Gly-Phe-Leu-DNA [R1 product]: in assay [1], the “binding to 3E7 antibody (gel-shifted band)” value is recorded as “binding to 3E7 antibody; also recorded: specific binding”. Besides, the “gel-shifted band with IgG2A isotype matched negative control antibody” value in assay [2] is recorded as “absent”.
